One assay relates to hippocampal slices. The assay can be described thus: spontaneous interictal-like bursts in hippocampal slices. Type of assay: cell-based, rat.
In assay [1] the test system is acute rat hippocampal slice. The assay can be described thus: stimulation-evoked afterdischarge, extracellular field recordings in hippocampal slice. The format is cell-based. As for the experimental part:
Sprague-Dawley rats (male and female; 25 to 35 days old) were prepared as described in Aghajanian, A. K. and Rasmussen, K., Synapse 31:331, 1989; and Buckmaster, P. S., Strowbridge, B. W., Schwartzdroin, P. A., J. Neurophysiol. 70:1281, 1993. In most hippocampal slice experiments, simultaneous extracellular field electrode recordings were obtained from CA1 and CA3 areas. For stimulation-evoked afterdischarge (13 slices, 8 animals), the concentration of Mg^2+ in the bathing medium was reduced to 0.9 mM. A bipolar tungsten stimulating electrode was placed on the Schaffer collaterals to evoke synaptically driven field responses in CA1; stimuli consisted to 100 to 300-μs-duration pulses at an intensity of four times population-spike threshold. Afterdischarges were evoked by a 2-s train of such stimuli delivered at 60 Hz. […] In all treatments, perfusion with furosemide-containing medium was begun after a consistent level of bursting had been established.
FIG. 2A1 illustrates that two seconds of electrical stimulation at 60 Hz elicited afterdischarge activity. […] The color bar indicates increasing magnitude of activity-evoked optical changes from the bottom to the top of the bar. The region of maximum optical change (red, yellow) corresponds to the apical and basal dendritic regions of CA1 on either side of the stimulating electrode. FIGS. 2B1-2BC illustrate responses to electrical stimulation following 20 minutes of perfusion with medium containing 2.5 mM furosemide.

Assay [2] concerns acute rat hippocampal slice. The assay can be described thus: imaging of intrinsic optical signals in hippocampal slice. The format is cell-based.
Text: For imaging of intrinsic optical signals, the tissue was illuminated with a beam of white light (tungsten filament light and lens system; Dedotec USA, Lodi, N.J.) directed through the microscope condenser. The light was controlled and regulated (power supply: Lambda Electronics, Melville, N.Y.) to minimize fluctuations and filtered (695 nm long-pass) so that the slice was transilluminated with long wavelengths (red). Image frames were acquired with a charge-coupled device camera (Dage-MTI) at 30 Hz and were digitized at 8 bits with a spatial resolution of 512 by 480 pixels by means of an Imaging Technology Series 151 imaging system; gains and offsets of the camera-control box and the analog-to-digital board were adjusted to optimize the sensitivity of the system. […] To increase signal-to-noise ratio, an averaged image was composed from 16 individual image-frames, integrated over 0.5 s and averaged together. […] Pseudocolored images were calculated by subtracting the first control image from subsequently acquired images and assigned a color lookup table to the pixel values. For these images, usually a linear low-pass filter was used to remove high-frequency noise and a linear-histogram stretch was used to map the pixel values over the dynamic range of the system. All operations on these images were linear so that quantitative information was preserved. […]
Where [3] appears, read: following treatment with furosemide, FIG. 3E.

Regarding `Nc1ccncc1` [4-AP], in the assay on hippocampal slices (200 to 300 μM 4-AP in bathing medium, 4 slices, 2 animals), the “spontaneous interictal-like bursts, average” value is on record as 33 burst/min.

`[K+]` [K^+]: the “spontaneous interictal-like bursts, average” value with hippocampal slices (10 mM K+ in bathing medium, 6 slices, 4 animals) was 81 bursts/min.

As to `NS(=O)(=O)c1cc(C(=O)O)c(NCc2ccco2)cc1Cl` [furosemide], the electrical afterdischarge activity entry in assay [1] (20 minutes of perfusion with medium containing 2.5 mM furosemide, 2 s stimulation at 60 Hz, FIG. 2B2) is reported as “blocked”. Further, the “field response to the test pulse” value in assay [1] (20 minutes of perfusion with medium containing 2.5 mM furosemide, FIG. 2B1) was “hyperexcitable field response (multiple population spikes)”. For the same molecule, in assay [1] (following 45 minutes of perfusion with normal bathing medium, FIGS. 2C1-2C3), the “reversibility of the effect after washout” value is “restoration of the initial response pattern”. Moreover, the “epileptiform activity during electrical stimulation” value in assay [1] (setting [3]) is “blocks”. Besides, in assay [2] (20 minutes of perfusion with medium containing 2.5 mM furosemide, FIG. 2BC), the stimulation-evoked optical changes result was “blocked”. Moreover, the “intrinsic optical signal (peak optical change during electrical stimulation)” value in assay [2] (setting [3]) is “blocks”.

For the origin of these results see US6834238B1, “Method for identifying optical contrast enhancing agents” (Cytoscan Sciences LLC, priority 1998, dated 2004).
